Legend:
[1] = tested on: rat; conditions: Sub-acute repeat dose toxicity; sprague dawley; Oral; Gavage/Intubation; dose end: 1 week; group: systemic; systemic / in life observation / food consumption / food consumption + systemic / in life observation / water consumption / water …
[2] = tested on: rat; conditions: Multigenerational reproductive toxicity study, sprague dawley, Oral, Gavage/Intubation, dose end: 1 generation
[3] = tested on: rabbit; conditions: Prenatal developmental toxicity study, new zealand white, Oral, Gavage/Intubation, dose end: 28 GD
[4] = tested on: rat; conditions: Subchronic dermal toxicity, sprague dawley, Topical, dose end: 90 day, group: systemic, systemic / in life observation / clinical signs / desquamation + systemic / in life observation / clinical signs / erythema + systemic / in …
[5] = tested on: rat; conditions: Subchronic oral toxicity in rodents, sprague dawley, Gavage/Intubation, dose end: 90 day, group: systemic
[6] = tested on: rat; conditions: Subchronic oral toxicity in rodents, other, Feed, dose end: 13 week, group: systemic
[7] = tested on: rat; conditions: Prenatal developmental toxicity study, other, Oral, Gavage/Intubation, dose end: 15 GD
[8] = tested on: rat; conditions: Subchronic oral toxicity in rodents, other, Gavage/Intubation, dose end: 90 day, group: systemic, systemic / in life observation / body weight / body weight + systemic / in life observation / body weight / body weight gain + systemic / …
[9] = tested on: dog; conditions: Subchronic oral toxicity in nonrodent, beagle, Gavage/Intubation, dose end: 91 day, group: systemic, systemic / in life observation / body weight / body weight + systemic / in life observation / body weight / body weight gain + systemic / …
[10] = tested on: rat; conditions: Subchronic oral toxicity in rodents, other, Feed, dose end: 13 week, group: systemic, systemic / pathology microscopic / stomach / erosion + systemic / pathology microscopic / stomach / inflammation + systemic / pathology …
[11] = tested on: dog; conditions: Subchronic oral toxicity in nonrodent, beagle, Feed, dose end: 13 week, group: systemic, systemic / clinical chemistry / globulins / globulins + systemic / clinical chemistry / protein / protein + systemic / hematology / platelet…
[12] = tested on: rat; conditions: Multigenerational reproductive toxicity study, other, Oral, Feed, dose end: 2 generation
[13] = tested on: rat; conditions: Prenatal developmental toxicity study, other, Oral, Gavage/Intubation, dose end: 15 GD; remark: listed apart in the source
[14] = tested on: mouse; conditions: Combined chronic toxicity/carcinogenicity, b6c3f1, Oral, Feed, dose end: 106 week, group: systemic
[15] = tested on: rat; conditions: Combined chronic toxicity/carcinogenicity; fischer; Oral; Feed; dose end: 105 week; group: systemic; systemic / in life observation / body weight / body weight + systemic / pathology microscopic / kidney / nephropathy + systemic / pathology …
[16] = tested on: primate; conditions: Sub-acute repeat dose toxicity, macaque, Oral, Gavage/Intubation, dose end: 28 day, group: systemic
[17] = tested on: mouse; conditions: Subchronic oral toxicity in rodents, cd1, Gavage/Intubation, dose end: 3 month, group: systemic, systemic / pathology microscopic / gallbladder / degeneration + systemic / pathology microscopic / gallbladder / hyperplasia + systemic / …
[18] = tested on: rat; conditions: Sub-acute repeat dose toxicity, sprague dawley, Oral, Gavage/Intubation, dose end: 1 month, group: systemic
[19] = group: parental, systemic / in life observation / clinical signs / fur (altered appearance) + systemic / in life observation / clinical signs / hunched …
[20] = group: reproductive, reproductive / offspring survival early / dead fetuses / dead fetuses
[21] = group: developmental, developmental / developmental malformation / bone / malpositioned + developmental / developmental malformation / bone / supernumerary + …
[22] = group: maternal, systemic / in life observation / body weight / body weight gain + systemic / in life observation / food consumption / food consumption
[23] = group: maternal, systemic / in life observation / body weight / body weight gain + systemic / in life observation / food consumption / food consumption + …
[24] = systemic / pathology microscopic / stomach / hyperplasia + systemic / in life observation / clinical signs / abnormal respiratory sounds + …
[25] = systemic / pathology microscopic / stomach / hyperplasia + systemic / pathology microscopic / stomach / edema + systemic / pathology …
[26] = systemic / in life observation / body weight / body weight + systemic / in life observation / food consumption / food efficiency + systemic…
[27] = group: developmental, developmental / developmental malformation / bone / fused + developmental / developmental malformation / bone / incomplete ossification
[28] = group: offspring, systemic / organ weight / spleen / absolute + systemic / organ weight / spleen / relative to body weight + developmental / offspring …
[29] = group: offspring, systemic / organ weight / spleen / absolute + systemic / organ weight / spleen / relative to body weight + systemic / organ weight / thymus…
[30] = group: parental, systemic / in life observation / body weight / body weight + systemic / in life observation / clinical signs / general pallor
[31] = group: developmental, developmental / developmental malformation / bone / wavy
[32] = group: maternal, systemic / in life observation / body weight / body weight gain
[33] = systemic / in life observation / body weight / body weight
[34] = systemic / in life observation / body weight / body weight + systemic / pathology microscopic / blood / lymphoma nos + systemic / pathology …
[35] = systemic / clinical chemistry / albumin / albumin + systemic / clinical chemistry / calcium / calcium + systemic / in life observation / …
[36] = systemic / clinical chemistry / alanine aminotransferase (alt/sgpt) / alanine aminotransferase (alt/sgpt) + systemic / clinical chemistry / …

O=S1CCON=C1c1cc2ccccc2s1 (centres undefined) [Bethoxazin]
LEL [1]: 50 mg/kg/day | LOAEL [1]: 50 mg/kg/day | NEL [1]: < 50 mg/kg/day | NOAEL [1]: < 50 mg/kg/day | LEL [2, 19]: 10 mg/kg/day | LOAEL [2, 19]: 70 mg/kg/day | NEL [2, 19]: < 10 mg/kg/day | NOAEL [2, 19]: 30 mg/kg/day | LEL [2, 20]: 70 mg/kg/day | LOAEL [2, 20]: > 70 mg/kg/day | NEL [2, 20]: 30 mg/kg/day | NOAEL [2, 20]: ≥ 70 mg/kg/day | LOAEL [3, 21]: 30 mg/kg/day | NEL [3, 21]: 3 mg/kg/day | LEL ([3]; group: developmental, developmental / developmental malformation / bone / supernumerary): 10 mg/kg/day | LOAEL [3, 22]: 30 mg/kg/day | LEL [3, 23]: 30 mg/kg/day | LEL [4]: 0.1 mg/kg/day | LOAEL [4]: 0.1 mg/kg/day | NEL [4]: < 0.1 mg/kg/day | NOAEL [4]: < 0.1 mg/kg/day | NEL [5, 24]: 1.25 mg/kg/day | NOAEL [5, 24]: 1.25 mg/kg/day | LEL [5, 25]: 5 mg/kg/day | LOAEL [5, 25]: 5 mg/kg/day

CC(C)Nc1nc(N)nc(Cl)n1 [Deethylatrazine]
LOAEL ([6]; systemic / in life observation / body weight / body weight + systemic / in life observation / food consumption / food efficiency): 35.1 mg/kg/day | LEL [6, 26]: 35.1 mg/kg/day | NEL [6, 26]: 3.2 mg/kg/day | NOAEL [6, 26]: 3.2 mg/kg/day | LEL [7, 27]: 100 mg/kg/day | LOAEL [7, 27]: 100 mg/kg/day | NEL [7, 27]: 25 mg/kg/day | NOAEL [7, 27]: 25 mg/kg/day | LEL [7, 22]: 25 mg/kg/day | LOAEL [7, 22]: 25 mg/kg/day | NEL [7, 23]: 5 mg/kg/day | NOAEL [7, 23]: 5 mg/kg/day

CCC(CN1CCOCC1)[N+](=O)[O-] (centres undefined) [4-(2-Nitrobutyl)morpholine]
LEL [8]: 10 mg/kg/day | LOAEL [8]: > 50 mg/kg/day | NEL [8]: 5 mg/kg/day | NOAEL [8]: ≥ 50 mg/kg/day | LEL [9]: 25 mg/kg/day | LOAEL [9]: 25 mg/kg/day | NEL [9]: 10 mg/kg/day | NOAEL [9]: 10 mg/kg/day

CCCCCCCCn1sc(Cl)c(Cl)c1=O [4,5-Dichloro-2-octyl-3(2H)-isothiazolone]
LEL [10]: 60.7 mg/kg/day | LOAEL [10]: 60.7 mg/kg/day | NEL [10]: 32.5 mg/kg/day | NOAEL [10]: 32.5 mg/kg/day | LEL [11]: 45.9 mg/kg/day | LOAEL [11]: 45.9 mg/kg/day | NEL [11]: 10.1 mg/kg/day | NOAEL [11]: 10.1 mg/kg/day | NEL [12, 28]: 10 mg/kg/day | NOAEL [12, 28]: 10 mg/kg/day | LEL [12, 29]: 20 mg/kg/day | LOAEL [12, 29]: 20 mg/kg/day | LOAEL ([12]; group: parental, systemic / in life observation / body weight / body weight + systemic / in life observation / body weight / body weight gain): 40 mg/kg/day | LEL ([12]; group: parental, systemic / in life observation / body weight / body weight + systemic / in life observation / body weight / body weight gain + systemic / in…): 40 mg/kg/day | NEL [12, 30]: 20 mg/kg/day | NOAEL [12, 30]: 20 mg/kg/day | LEL [13, 31]: 100 mg/kg/day | LOAEL [13, 31]: 100 mg/kg/day | NEL [13, 31]: 30 mg/kg/day | NOAEL [13, 31]: 30 mg/kg/day | LEL [13, 32]: 10 mg/kg/day | NEL [13, 32]: < 10 mg/kg/day | LOAEL ([13]; group: maternal, systemic / in life observation / clinical signs / defecation + systemic / in life observation / food consumption / food consumption): 30 mg/kg/day | NOAEL ([13]; group: maternal, systemic / in life observation / clinical signs / defecation + systemic / in life observation / food consumption / food consumption + …): 10 mg/kg/day

c1ccc2n[nH]nc2c1 [1,2,3-Benzotriazole]
LOAEL [14, 33]: 1760 mg/kg/day | NOAEL [14, 33]: < 1760 mg/kg/day | LEL [14, 34]: 1760 mg/kg/day | NEL [14, 34]: < 1760 mg/kg/day | LEL [15]: 335 mg/kg/day | LOAEL [15]: 335 mg/kg/day | NEL [15]: < 335 mg/kg/day | NOAEL [15]: < 335 mg/kg/day

OCC(CO)n1cnc(-c2ccc(F)cc2)c1-c1ccnc(Oc2ccccc2)n1
LOAEL [16, 35]: > 2000 mg/kg/day | NEL [16, 35]: 10 mg/kg/day | NOAEL [16, 35]: ≥ 2000 mg/kg/day | LEL ([16]; systemic / clinical chemistry / calcium / calcium + systemic / in life observation / clinical signs / feces, discoloration + systemic / …): 300 mg/kg/day | LEL [17]: 30 mg/kg/day | LOAEL [17]: > 300 mg/kg/day | NEL [17]: < 30 mg/kg/day | NOAEL [17]: ≥ 300 mg/kg/day | LOAEL [18, 36]: > 2000 mg/kg/day | NEL [18, 36]: 3 mg/kg/day | NOAEL [18, 36]: ≥ 2000 mg/kg/day | LEL ([18]; systemic / in life observation / body weight / body weight gain): 30 mg/kg/day
